Patent US20180155386A1, “PROGESTERONE ANTAGONISTS” (Evestra, Inc., priority 2011, published 2018)

Tests used:
[1] = tested on: uterine weight of non-pregnant guinea pigs; assay: Uterine weights of guinea pigs; format: in vivo; conditions: 10 mg s.c. from day 10 of cycle; sacrifice day 18; untreated guinea pig 1.2 g; higher than 1.2 g indicates pure progesterone antagonistic activity
Procedure: 3 Non-pregnant guinea pigs in the luteal phase of the cycle will be treated with 10 mg of the compound subcutaneously beginning on day 10 of the cycle. Animals were sacrificed on day 18 after the start of the treatment and the uterine weights were obtained at the time of sacrifice. Comparisons will be made to onapristone-treated animals at 10 mg/animal/day s.c

progesterone receptor = target: T1, progesterone receptor (Homo sapiens, UniProt P06401); conditions: background statement in words; cited from earlier work
T1 sequence (P06401 1-933): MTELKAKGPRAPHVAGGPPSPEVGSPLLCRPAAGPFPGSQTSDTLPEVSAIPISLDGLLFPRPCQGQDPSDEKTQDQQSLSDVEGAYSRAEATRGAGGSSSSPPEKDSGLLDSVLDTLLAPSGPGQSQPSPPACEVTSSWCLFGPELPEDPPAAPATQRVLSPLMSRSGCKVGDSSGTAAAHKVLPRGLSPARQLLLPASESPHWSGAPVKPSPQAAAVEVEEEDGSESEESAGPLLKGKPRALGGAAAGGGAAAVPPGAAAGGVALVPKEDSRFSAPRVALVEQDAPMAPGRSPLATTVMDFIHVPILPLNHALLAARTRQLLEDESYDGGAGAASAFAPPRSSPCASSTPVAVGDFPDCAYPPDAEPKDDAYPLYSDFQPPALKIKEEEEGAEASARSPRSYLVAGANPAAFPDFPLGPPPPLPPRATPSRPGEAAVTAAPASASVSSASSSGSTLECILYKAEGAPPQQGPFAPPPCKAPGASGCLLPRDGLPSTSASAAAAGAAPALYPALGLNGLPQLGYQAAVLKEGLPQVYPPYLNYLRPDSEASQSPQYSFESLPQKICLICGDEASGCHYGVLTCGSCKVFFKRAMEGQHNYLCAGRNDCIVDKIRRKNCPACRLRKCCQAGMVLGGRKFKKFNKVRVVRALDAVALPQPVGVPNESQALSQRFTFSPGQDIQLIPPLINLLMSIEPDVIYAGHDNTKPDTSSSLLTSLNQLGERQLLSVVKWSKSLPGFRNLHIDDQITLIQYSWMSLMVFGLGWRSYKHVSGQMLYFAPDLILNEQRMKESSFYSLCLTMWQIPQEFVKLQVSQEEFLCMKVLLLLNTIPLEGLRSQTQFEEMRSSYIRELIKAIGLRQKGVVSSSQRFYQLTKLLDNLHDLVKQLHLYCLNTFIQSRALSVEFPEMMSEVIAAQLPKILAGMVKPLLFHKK

glucocorticoid receptor = target: T2, glucocorticoid receptor (Homo sapiens, UniProt P04150); conditions: background statement in words; cited from earlier work
T2 sequence (P04150 1-777): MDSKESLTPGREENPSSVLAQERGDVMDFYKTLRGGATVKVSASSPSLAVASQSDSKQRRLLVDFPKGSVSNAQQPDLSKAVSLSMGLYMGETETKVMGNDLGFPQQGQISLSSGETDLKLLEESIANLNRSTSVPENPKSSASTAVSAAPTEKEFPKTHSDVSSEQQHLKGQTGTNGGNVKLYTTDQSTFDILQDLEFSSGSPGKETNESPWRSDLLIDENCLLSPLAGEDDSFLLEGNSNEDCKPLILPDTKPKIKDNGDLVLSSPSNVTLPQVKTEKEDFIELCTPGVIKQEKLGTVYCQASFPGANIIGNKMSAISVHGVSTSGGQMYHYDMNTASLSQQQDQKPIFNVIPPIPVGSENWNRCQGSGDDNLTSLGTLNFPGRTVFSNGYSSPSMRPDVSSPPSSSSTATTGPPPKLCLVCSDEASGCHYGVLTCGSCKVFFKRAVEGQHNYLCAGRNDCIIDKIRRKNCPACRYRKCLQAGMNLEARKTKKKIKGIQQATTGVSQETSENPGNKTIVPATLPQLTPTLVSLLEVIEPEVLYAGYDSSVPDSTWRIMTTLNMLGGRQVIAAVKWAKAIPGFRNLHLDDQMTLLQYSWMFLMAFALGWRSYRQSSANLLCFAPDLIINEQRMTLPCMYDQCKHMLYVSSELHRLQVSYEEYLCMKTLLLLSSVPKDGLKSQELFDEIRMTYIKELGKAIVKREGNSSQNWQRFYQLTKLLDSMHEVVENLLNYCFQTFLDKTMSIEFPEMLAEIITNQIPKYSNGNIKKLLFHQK

[2] = target: T3, progesterone receptor-LBD-UAS-bla HEK 293T cells (Homo sapiens, UniProt P06401); assay: Progesterone Antagonist Screen (GeneBLAzer Beta-lactamase reporter, activated by control agonist R5020); format: cell-based; conditions: values relative to RU486, which is 100%; HEK 293T reporter cells, agonist R5020 at EC80
T3 construct: host or cells: HEK 293T
T3 sequence (P06401 679-913 limits assumed): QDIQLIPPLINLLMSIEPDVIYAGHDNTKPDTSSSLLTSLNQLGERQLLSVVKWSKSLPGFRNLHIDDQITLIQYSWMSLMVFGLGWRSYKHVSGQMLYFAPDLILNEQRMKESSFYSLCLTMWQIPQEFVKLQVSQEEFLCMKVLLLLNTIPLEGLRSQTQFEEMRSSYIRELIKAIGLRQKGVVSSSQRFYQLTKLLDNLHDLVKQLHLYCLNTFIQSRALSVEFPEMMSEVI
Procedure: Determination of the agonist/antagonist nature of the test compounds was carried out using Invitrogen's SelectScreen™ Cell-based nuclear receptor profiling service which uses the GeneBLAzer® Beta-lactamase reporter technology. Basically this assay uses a Beta-lactamase cDNA under transcriptional control of an Upstream Activator Sequence (UAS). The UAS is activated by the GAL4 transcription factor DNA binding domain (DBD), which is expressed as a fusion protein with the target receptor ligand binding domain (LBD). Upon ligand binding, the GAL4(DBD)-NR(LDB) binds to the UAS, which controls transcription of Beta-lactamase. Beta-lactamase cleaves a special engineered fluorescent substrate which results in a change in the measured fluorescence wavelength.
The generalized protocol used for the Progesterone Antagonist Screen, activated by control Agonist R5020 is as follows:
The progesterone receptor-LBD-UAS-bla HEK 293T cells are thawed and prepared as described above for the Agonist screen. 4 μL of a 10× serial dilution of control antagonist RU-486 (starting concentration, 100 nM) or test compounds are added to appropriate wells of a TC-Treated assay plate. 32 μL of cell suspension is added to the wells which is then pre-incubated at 37° C./5% CO2 in a humidified incubator with test compounds and control antagonist titration for 30 minutes. 4 μL of a 10× control agonist (see above) at the predetermined EC80 concentration is added to wells containing the control antagonist or test compounds. The plate is incubated for 16-24 hours at 37° C./5% CO2 in a humidified incubator. 8 μL of 1 μM Substrate Loading Solution is added to each well and the plate is incubated for 2 hours at room temperature. The plate is then read on a fluorescence plate reader (Tecan Safire).

[3] = tested on: human breast cancer cell line T47D; assay: In vitro antiproliferative activity in human breast cancer cell line T47D (MTT); format: cell-based; conditions: 168 h, T47D cells, 7 days after cell seeding
Procedure: Cells from frozen stock were expanded in T75 cell culture flasks. For the experiment, cells in the logarithmic growth phase (70% confluent) were cultivated for 3 day without estradiol and then washed with PBS, detached by trypsination and suspended in 5 ml of fresh RPMI-1640 medium. Cells were centrifuged for 5 min at 1000 rpm and the pellet was resuspended in RPMI-1640 medium.
Cells were seeded in 96-well plates with a density of 5000 cells/well/in 0.18 mL RPMI-1640 medium. Cells were allowed to attach for 24 h. Visual control for viability at 24 h and cell culture medium change. At this time point, compounds were added in 20 μl to the final concentration. After 3 days medium and compounds where changed again. Finally, 7 days after cell seeding, 20 μl MTT-solution was added to each well and 4 h later the formed tetrazolium salt was measured with a photometer.

[4] = tested on: nidation (implantation) sites in pregnant rats; assay: Antinidation test in rat; format: in vivo, rats (Sprague-Daley); conditions: rats with implantation sites / rats treated; 3 mg/day s.c. from day 5 of pregnancy, counted at day 9; 0/3 = full progesterone antagonist
Procedure: For every compound to be screened in rats (Sprague-Daley) 3 control rats (vehicle treated, s.c.), 3 rats treated (s.c.) with a known progestin antagonist and 3 rats treated (s.c.) with the test compound (3 mg/day) are used. Female rats will be placed with male rats for 3 to 4 days and exam the vagina for sperm plugs every morning. The presence of a sperm plug will indicate day 1 of pregnancy. Pregnant rats will be treated daily with 3 mg of the screened compound at beginning on day 5 of pregnancy. At day 9 of gestation the rats will be euthanized and nidation sites counted.

[5] = tested on: progesterone receptor positive breast cancer; conditions: rat model of PR positive breast cancer; cited from earlier work

Compound	Uterine Weights of Guinea Pigs Treated with antiprogestins (grams) [1]	antiprogestagenic activity / progesterone antagonism (progesterone receptor)	antiglucocorticoid effects / glucocorticoid receptor antagonism (glucocorticoid receptor)	Emax [2]	IC50 [3]	Implantation Sites [4]	development of new tumors [5]	tumor size [5]
CC#C[C@]1(O)CC[C@H]2[C@@H]3CCC4=CC(=O)CCC4=C3[C@@H](c3ccc(N(C)C)cc3)C[C@@]21C [RU 486, Mifepristone]	1.81 grams	potent progesterone antagonist	overt glucocorticoid receptor antagonism	–	–	–	–	–
CC(=O)c1ccc([C@H]2C[C@@]3(C)[C@@H](CC[C@@]3(O)C(F)(F)C(F)(F)F)[C@@H]3CCC4=CC(=O)CCC4=C32)cc1 [ZK 230211, Lonaprisan, reference compound]	–	high antiprogestagenic activity	only marginal antiglucocorticoid effects	81%	0.3 nM	–	–	–
COCC(=O)[C@@]1(OC(C)=O)CC[C@H]2[C@@H]3CCC4=CC(=O)CCC4=C3[C@@H](c3ccc(N(C)C)cc3)C[C@@]21C [CDB-4124, Proellex, reference compound]	1.41 grams	–	–	–	–	0/3	decrease in the development of new tumors	regression of tumor size
CC(=O)c1ccc([C@H]2C[C@@]3(C)C(CC[C@@]3(O)/C=C/C(F)(F)F)C3CCC4=CC(=O)CCC4=C32)cc1 (stereo partly drawn) [Compound 1b, 11β-(4′-Acetylphenyl)-17β-hydroxy-17-(3,3,3-trifluoroprop-1(E)-enyl)-estra-4,9-diene-3-one]	0.785 grams	–	–	33%	0.64 nM	0/3	–	–
C[C@]12C[C@H](c3ccc(C(=O)C4CC4)cc3)C3=C4CCC(=O)C=C4CC[C@H]3[C@@H]1CC[C@@]2(O)C(F)(F)C(F)(F)F [Compound 2a, 11β-(4′-[Cyclopropylcarbonyl]phenyl)-17β-hydroxy-17-(1,1,2,2,2-pentafluoroethyl)-estra-4,9-diene-3-one]	2.3 grams	–	–	91%	1.2 nM	0/3	–	–
CC(=O)c1ccc([C@H]2C[C@@]3(C)[C@@H](CC[C@@]3(O)CC(F)=C(F)F)[C@@H]3CCC4=CC(=O)CCC4=C32)cc1 [Compound 1c, 11β-(4′-Acetylphenyl)-17β-hydroxy-17-(2,3,3-trifluoroprop-2-enyl)-estra-4,9-diene-3-one]	1.8 grams	–	–	21%	3.1 nM	0/3	–	–
